Like-named read-outs stand apart in the source and are kept apart here.
Columns and labels:
Assay type in all cases: in vivo
[1] = system: Alopecurus myosuroides (ALOMY); assay: Post-emergence herbicidal action against ALOMY; details: visual rating about 3 weeks after treatment vs untreated controls (100% = plants have died, 0% = like control plants)
Experimental: (§1) Seeds of monocotyledonous and dicotyledonous weeds and crop plants are placed in sandy loam in plastic or organic planting pots, covered with soil and cultivated in a greenhouse under controlled growth conditions. 2 to 3 weeks after sowing, the test plants are treated at the one-leaf stage. The compounds of the invention, formulated in the form of wettable powders (WP) or as emulsion concentrates (EC), are then sprayed onto the green parts of the plants as aqueous suspension or emulsion with addition of 0.5% additive at a water application rate of 600 l/ha (converted). After the test plants have been kept in the greenhouse under optimum growth conditions for about 3 weeks, the activity of the preparations is rated visually in comparison to untreated controls. For example, 100% activity=the plants have died, 0% activity=like control plants.
(§2) Tables B1 to B13 below show the effects of selected compounds of the general formula (I) according to Table 1 on various harmful plants and at an application rate corresponding to 320 g/ha or lower, which were obtained by the experimental procedure mentioned above. The appendices “a”, “b” and “c” give differentiation by dosage used with otherwise the same harmful plants tested.

Avena fatua (AVEFA) [2] = assay: Post-emergence herbicidal action against AVEFA; details: visual rating about 3 weeks after treatment
Experimental: as §1, §2

Lolium rigidum (LOLRI) [3] = assay: Pre-emergence herbicidal action against LOLRI
Description: (§3) Seeds of monocotyledonous and dicotyledonous weed plants and crop plants are placed in plastic or organic planting pots and covered with soil. The compounds of the invention, formulated in the form of wettable powders (WP) or as emulsion concentrates (EC), are then applied to the surface of the covering soil as aqueous suspension or emulsion with addition of 0.5% additive at a water application rate equivalent to 600 l/ha. After the treatment, the pots are placed in a greenhouse and kept under good growth conditions for the trial plants. After about 3 weeks, the effect of the preparations is scored visually in comparison with untreated controls as percentages. For example, 100% activity=the plants have died, 0% activity=like control plants.
(§4) Tables A1 to A13 below show the effects of selected compounds of the general formula (I) on various harmful plants and at an application rate corresponding to 320 g/ha or lower, which were obtained by the experimental procedure mentioned above. The appendices “a”, “b” and “c” give differentiation by dosage used with otherwise the same harmful plants tested.

[4] = system: Polygonum convolvulus (POLCO); assay: Post-emergence herbicidal action against POLCO
Experimental: as §1, §2

[5] = system: Pharbitis purpurea (PHBPU); assay: Pre-emergence herbicidal action against PHBPU; details: dosage 320 g/ha
Description: as §3, §4

[6] = system: Verconica persica (VERPE); assay: Pre-emergence herbicidal action against VERPE; details: dosage 320 g/ha
Description: as §3, §4

[7] = system: Amaranthus retroflexus (AMARE); assay: Pre-emergence herbicidal action against AMARE; details: visual scoring after about 3 weeks vs untreated controls
Description: as §3, §4

Avena fatua (AVEFA) [8] = assay: Pre-emergence herbicidal action against AVEFA; details: 320 g/ha, visual scoring after about 3 weeks vs untreated controls
Description: as §3, §4

[9] = system: Abutilon theophrasti (ABUTH); assay: Post-emergence herbicidal action against ABUTH; details: 80 g/ha, visual rating about 3 weeks after treatment vs untreated controls (100% = plants have died, 0% = like control plants)
Experimental: as §1, §2

Oryza sativa (ORYSA) = details: crop plant compatibility
Experimental: as §1
(§5) The observed effects on selected crop plants are reported here in comparison to the untreated controls (values in %). The appendices “a”, “b” and “c” give differentiation by dosage used with otherwise the same crop plants tested.

Zea mays (ZEAMX) = details: for Post-emergence action against ZEAMX in % (crop plant compatibility): 20 g/ha, effect in comparison to untreated controls; for Post-emergence action against ZEAMX in %: crop plant compatibility, 80 g/ha, effect vs untreated controls
Experimental: as §1, §5

[10] = system: Polygonum convolvulus (POLCO); assay: Pre-emergence herbicidal action against POLCO; details: dosage 320 g/ha
Description: as §3, §4

[11] = system: Amaranthus retroflexus (AMARE); assay: Post-emergence herbicidal action against AMARE
Experimental: as §1, §2

Setaria viridis (SETVI) [12] = assay: Pre-emergence herbicidal action against SETVI
Description: as §3, §4

[13] = system: Alopecurus myosuroides (ALOMY); assay: Pre-emergence herbicidal action against ALOMY; details: scored visually after about 3 weeks, 100% = plants have died
Description: as §3, §4

Lolium rigidum (LOLRI) [14] = assay: Post-emergence herbicidal action against LOLRI; details: dosage 80 g/ha
Experimental: as §1, §2

Viola tricolor (VIOTR) = assay: Pre-emergence herbicidal action against VIOTR
Description: as §3, §4

[15] = system: Matricaria inodora (MATIN); assay: Pre-emergence herbicidal action against MATIN; details: dosage 320 g/ha
Description: as §3, §4

[16] = system: Echinochloa crus-galli (ECHCG); assay: Post-emergence herbicidal action against ECHCG
Experimental: as §1, §2

[17] = system: Echinochloa crus-galli (ECHCG); assay: Pre-emergence herbicidal action against ECHCG; details: dosage 320 g/ha
Description: as §3, §4

Setaria viridis (SETVI) [18] = assay: Post-emergence herbicidal action against SETVI
Experimental: as §1, §2

[19] = system: Verconica persica (VERPE); assay: Post-emergence herbicidal action against VERPE; details: 320 g/ha, VERPE
Experimental: as §1, §2

[20] = system: Pharbitis purpurea (PHBPU); assay: Post-emergence herbicidal action against PHBPU
Experimental: as §1, §2

[21] = 20 g/ha, effect vs untreated controls
[22] = 80 g/ha, effect in comparison to untreated controls
[23] = 80 g/ha, visual rating about 3 weeks after treatment vs untreated controls (100% = plants have died, 0% = like control plants)

Post-emergence action against ORYSA in % (Oryza sativa (ORYSA); [21]) | Post-emergence action against ORYSA in % (Oryza sativa (ORYSA); [22]) | Post-emergence action against ZEAMX in % (Zea mays (ZEAMX)) | SMILES | Post-emergence action against ALOMY in % ([1]; 80 g/ha) | Post-emergence action against AVEFA in % (Avena fatua (AVEFA) [2]; 80 g/ha) | Pre-emergence action against LOLRI in % (Lolium rigidum (LOLRI) [3]; dosage 80 g/ha) | Pre-emergence action against LOLRI in % (Lolium rigidum (LOLRI) [3]; dosage 320 g/ha) | Post-emergence action against POLCO in % ([4]; dosage 80 g/ha) | Pre-emergence action against PHBPU in % [5] | Pre-emergence action against VERPE in % [6] | Pre-emergence action against AMARE in % ([7]; 80 g/ha) | Pre-emergence action against AMARE in % ([7]; 320 g/ha) | Pre-emergence action against AVEFA in % (Avena fatua (AVEFA) [8]) | Pre-emergence action against POLCO in % [10] | Post-emergence action against AMARE in % [11, 23] | Pre-emergence action against SETVI in % (Setaria viridis (SETVI) [12]; dosage 80 g/ha) | Pre-emergence action against SETVI in % (Setaria viridis (SETVI) [12]; dosage 320 g/ha) | Pre-emergence action against ALOMY ([13]; 80 g/ha) | Pre-emergence action against ALOMY ([13]; 320 g/ha) | Pre-emergence action against VIOTR in % (Viola tricolor (VIOTR); 320 g/ha, Viola tricolor) | further results
0% | 0% | 20% | CCOC(=O)C(C)Oc1nn(-c2ccccn2)c(-c2ccc(F)nc2)c1Br (stereo not drawn) [Example I-102] | 90% | 90% | 80% | 100% | 90% | 80% | 80% | 80% | 90% | 90% | 90% | 80% | 90% | 100% | 100% | 100% | 100% | Post-emergence action against ABUTH in % [9]: 80%; Post-emergence action against ZEAMX in % (crop plant compatibility) (Zea mays (ZEAMX)): 0%; Post-emergence action against LOLRI in % (Lolium rigidum (LOLRI) [14]): 90%; Pre-emergence action against VIOTR in % (Viola tricolor (VIOTR); dosage 80 g/ha): 90%
10% | – | 10% | O=C(O)COc1nn(-c2ncccc2F)c(-c2ccc(F)nc2)c1C1CC1 [Example I-43] | 90% | 90% | 90% | 100% | – | 80% | 90% | 80% | 90% | 100% | 80% | 80% | 100% | 100% | 100% | 100% | 100% | Pre-emergence action against MATIN in % [15]: 80%; Post-emergence action against ECHCG in % ([16]; dosage 80 g/ha): 90%; Pre-emergence action against ECHCG in % [17]: 100%; Post-emergence action against SETVI in % (Setaria viridis (SETVI) [18]; dosage 80 g/ha): 90%; Post-emergence action against ZEAMX in % (crop plant compatibility) (Zea mays (ZEAMX)): 10%; Pre-emergence action against VIOTR in % (Viola tricolor (VIOTR); dosage 80 g/ha): 100%
– | 20% | 20% | C[C@H](NC(=O)COc1nn(-c2ccccn2)c(-c2cncc(F)c2)c1Br)C(=O)O [Example I-80] | – | 80% | – | 100% | 80% | 90% | 90% | 90% | 90% | 90% | 90% | 80% | 90% | 100% | 100% | 100% | 90% | Post-emergence action against VERPE in % [19]: 80%; Post-emergence action against ALOMY in % ([1]; 320 g/ha): 90%; Post-emergence action against AVEFA in % (Avena fatua (AVEFA) [2]; 320 g/ha): 80%; Pre-emergence action against MATIN in % [15]: 90%; Post-emergence action against ECHCG in % ([16]; dosage 80 g/ha): 80%; Post-emergence action against ECHCG in % ([16]; dosage 320 g/ha): 80%; Post-emergence action against POLCO in % ([4]; dosage 320 g/ha): 80%; Pre-emergence action against ECHCG in % [17]: 100%; Post-emergence action against SETVI in % (Setaria viridis (SETVI) [18]; dosage 320 g/ha): 80%; Post-emergence action against PHBPU in % ([20]; dosage 80 g/ha): 80%; Post-emergence action against PHBPU in % ([20]; dosage 320 g/ha): 80%; Post-emergence action against ORYSA in % (Oryza sativa (ORYSA); 320 g/ha, effect in comparison to untreated controls): 20%; Post-emergence action against AMARE in % ([11]; 320 g/ha, visual rating about 3 weeks after treatment): 80%

Source: US20240041042A1, “1-(PYRIDYL)-5-AZINYLPYRAZOLE DERIVATIVES, AND THEIR USE FOR CONTROL OF UNDESIRED PLANT GROWTH” (Bayer Aktiengesellschaft, priority 2020, published 2024)
